# Experiments:
# [1] = test system: Escherichia coli with type 1 pili (strain 382); assay type: cell-based; settings: minimum inhibitive concentration (mg/ml) divided by that of D-mannose, x100; lower = stronger; free mannose derivatives before copolymerization
# From the text: The conducted bacteriological test is an agglutination yeast test. In fact the bacteria Escherichia coli with type 1 pili, have the capacity to agglutinate yeasts. The agglutination may be prevented by mannose derivatives. The strain 382 of Escherichia coli obtained from National Bacteriological Laboratory of Stockholm, which expresses in a stable manner type 1 pili, is used. The expression of the pili can be enhanced by growing bacteria by way of three subcultures in a nutrient broth (NB, oxiod). After culture the bacteria are centrifuged and added as suspension in the same amount of phosphate buffered saline (PBS pH 7.2). A concentration of bacteria equal to 2-3.10^9 bacteria/ml is obtained. Baker's yeasts are added as suspension into PBS at a final concentration of 5.10^8 cells/ml. The various mannose derivatives are diluted from the initial concentration of 20 mg/ml maximum in two stages in PBS. Into 50 μl of each diluted sugar 50 μl of Escherichia coli is added and incubated at room temperature for 15 min to allow interaction. Finally 50 μl of yeast is added into each tube. After another 15 min. incubation at room temperature and one night at 4° C., agglutination, in other words interaction between bacteria and yeast, is evaluated.
# [2] = test system: Escherichia coli with type 1 pili (strain 382); assay type: cell-based; settings: agglutination test of the terpolymer directly on Escherichia coli strains; relative to D mannose = 100
Compound,Inhibitive activity in % [1] [%],Inhibitative activity [2] [%]
"OCCOCCO[C@H]1OC(CO)[C@@H](O)[C@H](O)C1O (stereo partly drawn) [Compound 4, 2-[(2-hydroxy-)ethoxy-]-ethyl α-D-Mannopyranoside]",24,–
"COCCOCCO[C@H]1O[C@H](CO)[C@@H](O)[C@H](O)[C@@H]1O [Compound 7, 2-[(2-methoxy-)ethoxy-]-ethyl α-D-Mannopyranoside]",24,–
"C=CCO[C@H]1OC(CO)[C@@H](O)C(O)C1O (stereo partly drawn) [Compound 8, Allyl-α-D-mannopyranoside]",0.12,–
"OCC1O[C@H](OCc2ccccc2)C(O)[C@@H](O)[C@@H]1O (stereo partly drawn) [Compound 10, Benzyl-α-D-Mannopyranoside]",24,–
"Nc1ccc(O[C@H]2O[C@H](CO)[C@@H](O)[C@H](O)[C@@H]2O)cc1 [Compound 12, p-Aminophenyl-α-D-Mannopyranoside]",0.93,–
"O=[N+]([O-])c1ccc(O[C@H]2O[C@H](CO)[C@@H](O)[C@H](O[C@H]3O[C@H](CO)[C@@H](O)[C@H](O)[C@@H]3O)[C@@H]2O)cc1 [Compound 15, p-Nitrophenyl 3-O-α-D-Mannopyranosyl-α-DMannopyranoside]",0.70,–
O=C[C@@H](O)[C@@H](O)[C@H](O)[C@H](O)CO [D-Mannose],100,100
"CCS[C@H]1O[C@H](CO)[C@@H](O)[C@H](O)[C@@H]1O [Ethyl 1-thio-α-D-mannopyranoside, reference compound]",18,–
"CO[C@H]1O[C@H](CO)[C@@H](O)[C@H](O)[C@@H]1O [Methyl-α-D-Mannoside, reference compound]",45,–

# Reference: patent US20120100097A1, “CELLULOSE SUPPORT CONTAINING D-MANNOSE DERIVATIVES” (priority 2009, published 2012)
